Series [1] concerns the target T1, ligand binding domain of MR (Homo sapiens, UniProt P08235).
T1 construct: expressed in transfected cells; host or cells: CHO-K1
T1 sequence (P08235 726-964 limits assumed): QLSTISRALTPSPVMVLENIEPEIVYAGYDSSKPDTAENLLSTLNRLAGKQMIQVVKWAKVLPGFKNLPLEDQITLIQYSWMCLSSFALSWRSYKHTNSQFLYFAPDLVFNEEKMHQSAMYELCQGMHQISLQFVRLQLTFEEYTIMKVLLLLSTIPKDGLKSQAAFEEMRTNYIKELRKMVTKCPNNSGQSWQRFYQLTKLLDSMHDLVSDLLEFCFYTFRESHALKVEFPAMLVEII
In words: functional cell-based MR transactivation assay in CHO-K1 cells. Conditions: duplicate.

Series [2] concerns SRC-1 recruitment at the promoter of the SCNN1A gene. Also on record: method as in Amazit et al. 2015. Conditions: ref Amazit et al. 2015; cited from earlier work.
The next series relates to MR. On the set-up: method as in Amazit et al. 2015. Conditions: ref Amazit et al. 2015; cited from earlier work.
Details of series [3]: method as in Filippatos et al. 2016. The following applies: 1066 HFrEF patients; ref Filippatos et al. 2016; cited from earlier work.
The subject of a further series is S810L MR mutant. Also on record: method as in Geller et al. 2000, Amazit et al. 2015. Conditions: ref Geller et al. 2000, Amazit et al. 2015; cited from earlier work.
Series [4] deals with MR vs all other steroid hormone receptors. Conditions: ref Bärfacker et al. 2012, Pitt et al. 2012; cited from earlier work.
The conditions of series [5]: cited from earlier work; for absolute change in nocturnal BP: day 90, patients with nocturnal hypertension, ref Ruilope et al. 2016.
The subject of another series is DOCA/salt rats. Also on record: method as in Kolkhof et al. 2014. Conditions: ref Kolkhof et al. 2014, cited from earlier work.
On the set-up of series [6]: method as in Pitt et al. 2013. Conditions: ref Pitt et al. 2013, cited from earlier work.
In series [7] the test system is mouse model of pressure overload-induced HF. Also on record: method as in Grune et al. 2016. Conditions: ref Grune et al. 2016; cited from earlier work.
For series [8] the following is noted: quantitative whole-body autoradiography, [14C]-labeled, healthy rats; ref Kolkhof et al. 2014; cited from earlier work.

Like-named read-outs stand apart in the source and are kept apart here.

What is called IC50 is the concentration needed to halve the response being measured. In the case of `CCOc1ncc(C)c2c1[C@H](c1ccc(C#N)cc1OC)C(C(N)=O)=C(C)N2` [finerenone], the concentration for half-maximal inhibition (IC50) in [1] (agonist DOCA 10 nM, read-out: IC50 vs DOCA as agonist) is 46 nM; in [1] (agonist corticosterone 1 nM, read-out: IC50 vs corticosterone as agonist) it was 24 nM; in series [1] (agonist cortisol 10 nM, read-out: IC50 vs cortisol as agonist), 5 nM. The “mode of action on SRC-1 recruitment” value in [2] was “inverse agonist”. Further, in the series with MR, the “delay of aldosterone-induced nuclear translocation of MR” value was “more efficiently than spironolactone”. The “outcome including death and CV hospitalization vs eplerenone” value in series [3] was “nominally improved outcome”. In addition, the “effect on S810L MR mutant” value in the series with S810L MR mutant is recorded as “block”. The “selectivity toward MR” value in series [4] is “at least 500 fold”. Also, the “absolute change in nocturnal BP” value was −9.5 mmHg in [5] (10 mg dose group) and −12.0 mmHg in series [5] (20 mg dose group). Moreover, the albuminuria result in [5] (7.5, 10, 15 and 20 mg, 90 days, on top of SoC, ref Bakris et al. 2015) was “dose-dependent, significant reductions”. For the same molecule, the “systolic blood pressure vs 100 mg/kg eplerenone” value in the series on DOCA/salt rats (10 mg/kg finerenone, head-to-head) is “significantly lower”. In addition, the “reduction of cardiac hypertrophy, pro-BNP and proteinuria vs eplerenone” value in the series with DOCA/salt rats (equinatriuretic doses) is on record as “more efficiently than eplerenone”. In series [6] (5 and 10 mg OD vs spironolactone 25 or 50 mg/day), the “decrease of BNP, NT-pro-BNP and urinary albumin vs spironolactone” value is listed as “at least as effective as spironolactone”. The “incidence of hyperkalemia vs spironolactone” value in series [6] (5 and 10 mg OD) is given as “significantly lower incidence”. Also, in series [6] (5 and 10 mg OD), the “increases in serum potassium vs spironolactone” value is given as “significantly lower increases”. Moreover, the “prevention of myocardial hypertrophy vs eplerenone” value in series [7] was “more pronounced prevention of myocardial hypertrophy”. In series [8], the “distribution into cardiac and kidney tissues” value is given as “balanced distribution”.

The record behind these values is article PMC5488394, “30 YEARS OF THE MINERALOCORTICOID RECEPTOR: Mineralocorticoid receptor antagonists: 60 years of research and development” (The Journal of Endocrinology, 2017).
